Experimental data from patent publication US20240350458A1, “14-3-3 PROTEIN MODULATORS AS ANTITUMOR AGENTS” (priority 2021, published 2024).
Read-outs that look alike come from different tables or passages of the source.

How the values were obtained:
[1] = test system: four human ATC cell lines; assay: Cellular screening in four human ATC cell lines; format: cell-based
U2932 = assay: MTT proliferation assay, B-cell lymphoma cell line; format: cell-based; conditions: Homo sapiens; U2932, 72 h of drug incubation
Protocol: (§1) All the above compounds were tested in vitro for their anticancer activity against a panel of eight B-cell lymphoma cell lines by MTT proliferation assay. The tested cell lines belonging to mantle cell lymphoma (MCL: REC1, Z138), activated B-cell diffuse large B-cell lymphoma (ABC-DLBCL: R11, HBL1, U2932, TMD8), germinal center B-cell diffuse large B-cell lymphoma (GCB-DLBCL: SU-DHL-10, FARAGE) subtypes. In overall, MCL cell lines present Cyclin D1 overexpression, while ABC- and GCB-DLBCL's proliferation is BCR and BCL6/HDACs driven, respectively. At the RNA level, all tested lymphoma cell lines were characterized by an overexpression of 14-3-3 zeta as reported for B-cell lymphomas resistant to chemotherapeutic regimen.

SUDHL10 = assay: MTT proliferation assay, B-cell lymphoma cell line; format: cell-based; conditions: Homo sapiens, SU-DHL10; SUDHL10, 72 h of drug incubation
Protocol: as §1

FARAGE = assay: MTT proliferation assay, B-cell lymphoma cell line; format: cell-based; conditions: 72 h of drug incubation
Protocol: as §1

TMD8 = assay: MTT proliferation assay, B-cell lymphoma cell line; format: cell-based; conditions: Homo sapiens; TMD8, 72 h of drug incubation
Protocol: as §1

HBL1 = assay: MTT proliferation assay, B-cell lymphoma cell line; format: cell-based; conditions: HBL1, 72 h of drug incubation
Protocol: as §1

RI1 = assay: MTT proliferation assay, B-cell lymphoma cell line; format: cell-based; conditions: Ri-1; RI1, 72 h of drug incubation
Protocol: as §1

Z138 = assay: MTT proliferation assay, B-cell lymphoma cell line; format: cell-based; conditions: Homo sapiens, Z-138; Z138, 72 h of drug incubation
Protocol: as §1

REC1 = assay: MTT proliferation assay, B-cell lymphoma cell line; format: cell-based; conditions: Homo sapiens; REC1, 72 h of drug incubation
Protocol: as §1

8505c = assay: MTT assay, ATC cell line, fixed concentrations; format: cell-based; conditions: Homo sapiens, 48 h, read-out: % of proliferating cells; for viability at 0.02 µM: 20 nM; for viability at 0.1 µM: 100 nM; for viability at 20 µM: 20000 nM
Protocol: (§2) The compounds FC91, SB14, SB17, SB18, SB19, SB20, SB21 and FC85 were employed in a cellular screening at fixed concentration ranging from 20 nM to 20 μM.
(§3) Table 2: Four human thyroid cancer cell lines were incubated with FC91, SB14, SB17, SB18, SB19, SB20A, SB20b, SB21 and FC85 for 48 h at fixed concentration of 20,100 and 20000 nM and then assayed with MTT. Data are reported as % of proliferating cells.

Nthory = assay: MTT assay, ATC cell line, fixed concentrations; format: cell-based; conditions: Homo sapiens, 48 h, read-out: % of proliferating cells; for viability at 0.02 µM: 20 nM; for viability at 0.1 µM: 100 nM; for viability at 20 µM: 20000 nM
Protocol: as §2, §3

FRO = assay: MTT assay, ATC cell line, fixed concentrations; format: cell-based; conditions: Homo sapiens, 48 h, read-out: % of proliferating cells; for viability at 0.02 µM: 20 nM; for viability at 0.1 µM: 100 nM; for viability at 20 µM: 20000 nM
Protocol: as §2, §3

SW1736 = assay: MTT assay, ATC cell line, fixed concentrations; format: cell-based; conditions: Homo sapiens, SW-1736, 48 h, read-out: % of proliferating cells; for viability at 0.02 µM: SW1736, 20 nM; for viability at 0.1 µM: SW1736, 100 nM; for viability at 20 µM: SW1736, 20000 nM
Protocol: as §2, §3

[2] = test system: eight B-cell lymphoma cell lines; assay: MTT proliferation assay, panel of eight B-cell lymphoma cell lines; format: cell-based; conditions: for IC50: B-cell, read-out: IC50 in all eight lymphoma cell lines; for activity in lymphoma cell lines: eight lymphoma cell lines
Protocol: as §1

glioblastoma cell = conditions: combined with temozolomide; cited from earlier work
[3] = human ATC cell lines, read-out: IC50 values in ATC cell lines
[4] = Homo sapiens, in one (i.e. SB17) to four (i.e. SB20b) cell lines of anaplastic thyroid cancer, read-out: IC50 value in ATC cell lines

Compound | IC50 (U2932) [nM] | IC50 (SUDHL10) [nM] | IC50 (FARAGE) [nM] | IC50 (TMD8) [nM] | IC50 (HBL1) [nM] | IC50 (RI1) [nM] | IC50 (Z138) [nM] | viability at 0.02 µM (8505c) [%] | viability at 0.1 µM (8505c) [%] | viability at 20 µM (8505c) [%] | viability at 0.02 µM (Nthory) [%] | viability at 0.1 µM (Nthory) [%] | viability at 20 µM (Nthory) [%] | viability at 0.02 µM (FRO) [%] | viability at 0.1 µM (FRO) [%] | viability at 20 µM (FRO) [%] | viability at 0.02 µM (SW1736) [%] | viability at 0.1 µM (SW1736) [%] | viability at 20 µM (SW1736) [%] | IC50 [1, 4] [nM] | further results
Cc1ccc(S(=O)(=O)Nc2ccc3c(c2)C(=Cc2nccn2C)C(=O)N3)cc1 (stereo in doubt) [FC91, N-{(3E)-3-[(1-methyl-1H-imidazol-2-yl)methylidene]-2-oxo-2,3-dihydro-1H-indol-5-yl}-4-methylbenzenesulfonamide] | 50 | 50 | 25 | 50 | 40 | 30 | 50 | 79 | 38 | 48 | 84 | 55 | 47 | 63 | 46 | 55 | 73 | 52 | 60 | – | IC50 [1, 3]: 100 to 200 nM; IC50 (REC1): 50 nM; IC50 [2]: < 1000 nM; IC50 in eight different lymphoma cell lines ([2]; eight different lymphoma cell lines): nanomolar range
Cc1ccc(S(=O)(=O)Nc2ccc3c(c2)/C(=C/c2cnc[nH]2)C(=O)N3)cc1 [FC85, N-[(3Z)-3-(1H-imidazol-5-ylmethylidene)-2-oxo-2,3-dihydro-1H-indol-5-yl]-4-methylbenzenesulfonamide] | 500 | 600 | 500 | 600 | 600 | 500 | 500 | 80 | 99 | 36 | 78 | 83 | 38 | 75 | 98 | 42 | 90 | 67 | 56 | 100 to 20000 | inhibition of glioblastoma cell viability, combination vs single treatment (glioblastoma cell): significant increase in inhibition; IC50 (REC1): 1000 nM; IC50 [2]: < 1000 nM
CS(=O)(=O)Nc1ccc2c(c1)/C(=C/c1cccs1)C(=O)N2 [FC96, reference compound] | > 20000 | > 20000 | > 20000 | > 20000 | > 20000 | 20000 | > 20000 | – | – | – | – | – | – | – | – | – | – | – | – | – | IC50 (REC1): 15000 nM; activity in lymphoma cell lines [2]: almost inactive
CS(=O)(=O)Nc1ccc2c(c1)/C(=C/c1cnc[nH]1)C(=O)N2 [FC100, reference compound] | > 20000 | 19000 | > 20000 | > 20000 | > 20000 | 5500 | 8000 | – | – | – | – | – | – | – | – | – | – | – | – | – | IC50 (REC1): 16000 nM; activity in lymphoma cell lines [2]: almost inactive
Cc1ccc(S(=O)(=O)Nc2ccc3c(c2)/C(=C/c2cnc(C)[nH]2)C(=O)N3)cc1 [SB14, (Z)-4-methyl-N-(3-((2-methyl-1H-imidazol-5-yl)methylene)-2-oxoindolin-5-yl)benzenesulfonamide] | – | – | – | – | – | – | – | 97 | 128 | 65 | 95 | 77 | 41 | 92 | 113 | 57 | 84 | 102 | 70 | 100 to 20000 | –
Cc1ccc(S(=O)(=O)Nc2ccc3c(c2)/C(=C/c2ccn[nH]2)C(=O)N3)cc1 [SB17, (Z)—N-(3-((1H-pyrazol-5-yl)methylene)-2-oxoindolin-5-yl)-4-methylbenzenesulfonamide] | – | – | – | – | – | – | – | 90 | 119 | 59 | 89 | 73 | 48 | 80 | 113 | 55 | 81 | 99 | 63 | 100 to 20000 | –
Cc1ccc(S(=O)(=O)Nc2ccc3c(c2)/C(=C/c2cn[nH]c2)C(=O)N3)cc1 [SB18, (E/Z)—N-(3-((1H-pyrazol-4-yl)methylene)-2-oxoindolin-5-yl)-4-methylbenzenesulfonamide] | – | – | – | – | – | – | – | 80 | 48 | 42 | 54 | 58 | 34 | 77 | 54 | 56 | 77 | 64 | 59 | 100 to 20000 | IC50 [1, 3]: 100 to 200 nM
Cc1ccc(S(=O)(=O)Nc2ccc3c(c2)/C(=C/c2ncc[nH]2)C(=O)N3)cc1 [SB19, (Z)—N-(3-((1H-imidazol-2-yl)methylene)-2-oxoindolin-5-yl)-4-methylbenzenesulfonamide] | – | – | – | – | – | – | – | 74 | 74 | 37 | 81 | 61 | 43 | 78 | 74 | 51 | 80 | 85 | 59 | 100 to 20000 | IC50 [1, 3]: 100 to 200 nM
Cc1ccc(S(=O)(=O)Nc2ccc3c(c2)C(=Cc2cccnc2N)C(=O)N3)cc1 [SB20, N-(3-((2-aminopyridin-3-yl)methylene)-2-oxoindolin-5-yl)-4-methylbenzenesulfonamide] | – | – | – | – | – | – | – | – | – | – | – | – | – | – | – | – | – | – | – | 100 to 20000 | –
Cc1ccc(S(=O)(=O)Nc2ccc3c(c2)C(=Cc2cccnc2N)C(=O)N3)cc1 [SB20A, N-(3-((2-aminopyridin-3-yl)methylene)-2-oxoindolin-5-yl)-4-methylbenzenesulfonamide] | – | – | – | – | – | – | – | 78 | 99 | 35 | 99 | 77 | 63 | 85 | – | – | 82 | 89 | – | – | –
Cc1ccc(S(=O)(=O)Nc2ccc3c(c2)C(=C2c4ccccc4-c4ccccc42)C(=O)N3)cc1 [SB21, N-(3-(9H-fluoren-9-ylidene)-2-oxoindolin-5-yl)-4-methylbenzenesulfonamide] | – | – | – | – | – | – | – | 82 | 134 | 37 | 91 | 94 | 15 | 93 | 114 | 60 | 108 | 103 | 64 | 100 to 20000 | –
